# Results taken from PubChem BioAssay AID2745 (NMMLSC, 2010).
# Where “and” joins values, the source holds several entries; their conditions need not be identical. Equal values may be shown once. Calls of active or inactive are those of the source. The rule behind the calls is not given here.
# Experiment: LAP4-GFP modulation potency in yeast, dose response, cell-based, MLPCN hits, flow cytometry (AID 2745);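 note: yeast exposed to compound for three hours at 30 degrees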
# Conditions: S. cerevisiae LAP4-GFP reporter, flow cytometry fluorescence; at 33 µM (top of the series)
row,SMILES,LAP4-GFP fluorescence (kMESF)
1,CC(=O)N(C(C)=O)c1ncnc2c1c(-c1ccc(Cl)cc1)nn2C(C)(C)C,3.97 kMESF (inactive)
2,COc1ccc2c(c1)c1nnc(SC)nc1n2C,4.19 kMESF (inactive)
3,COc1cc(N=c2ssnc2Cl)cc(OC)c1,11.3 kMESF (inactive)
4,COc1ccc(N2C(=O)C(Cl)=C(Nc3c(C)n(C)n(-c4ccccc4)c3=O)C2=O)cc1,4.31 kMESF (inactive)
5,CC(C)[C@@]1(c2ccccc2)ON(c2ccccc2C(F)(F)F)C1=O,3.43 kMESF (inactive)
6,Nc1c(C(=O)c2cccs2)sc2nsc(SCCN3CCCCC3)c12,-1.87 kMESF (inactive)
7,O=[N+]([O-])c1ccc(S(=O)(=O)c2ccccc2)nc1,9.63 kMESF (inactive)
8,O=C(/C=C/c1ccccc1Cl)c1ccccc(=O)c1O,-5.15 kMESF (inactive)
9,CCCCC(=O)NC(=S)NNC(=O)CCc1ccccc1,8.13 kMESF (inactive)
10,COc1cc(C=C2C(=O)c3ccccc3C2=O)cc(OC)c1OC,4.04 kMESF (inactive)
11,Oc1ccc(N=Nc2ccccc2)o1,18.8 kMESF (inactive)
12,CCN1/C(=C/C=C/c2sc3ccccc3[n+]2CC)Sc2ccccc21,7.72 kMESF (inactive)
13,CCN(CC)c1ccc2cc(-c3nc(-c4ccc(OC)cc4)cs3)c(=O)oc2c1,1.57 kMESF (inactive)
14,Cc1ccccc1[C@@]1(C)ON(c2ccccc2C(F)(F)F)C1=O,5.8 kMESF (inactive)
15,O=S(=O)(/N=C(/Sc1ccccc1)c1ccccc1)c1ccccc1,11.4 kMESF (inactive)
16,O=C(c1ccc(Cl)c([N+](=O)[O-])c1)N1CCN(c2ccccc2)CC1,8.26 kMESF (inactive)
17,CC(=O)N(\C=C/C=C/C=C1\Sc2ccccc2C1=O)c1ccccc1,14.2 kMESF (inactive)
18,Cc1c(NC2=C(Cl)C(=O)N(c3ccccc3Cl)C2=O)c(=O)n(-c2ccccc2)n1C,3.78 kMESF (inactive)
19,CCCN1CCc2c(sc(NC(=S)NC(=O)c3ccccc3)c2C#N)C1,7.91 kMESF (inactive)
20,O=C1N(c2ccccc2C(F)(F)F)O[C@@]1(c1ccccc1)C1CCCCC1,2.73 kMESF (inactive)
21,CC1(C)OC(c2ccccc2)=C/C(=C/C=C2C(=O)NC(=S)NC2=O)O1,3.03 kMESF (inactive)
22,Cc1cc(=O)n2c3c(sc2n1)C(=O)N(Cc1ccccc1)C3=O,9.31 kMESF (inactive)

row,SMILES,LAP4-GFP fluorescence (kMESF)
1,CCOC(=O)C1=C(O)c2ccccc2C(=O)/C1=C\c1ccc(C)cc1,-35.8 kMESF (inactive)
2,COc1cccc(/C=C2\SC(=S)N(CCCC(=O)Nc3ccc(C(=O)O)cc3)C2=O)c1,3.71 kMESF (inactive)
3,CCN(CC)c1ccc(/C=C2/C(=O)c3ccc(C(=O)O)cc3C2=O)cc1,13.8 kMESF (inactive)
4,O=C1c2cccc3c([N+](=O)[O-])ccc(c23)C(=O)N1O,3.64 kMESF (inactive)
5,CS(=O)(=O)N1N=C(c2ccccc2)CC1c1ccc2c(c1)OCO2 (stereo unspecified),-20.2 kMESF (inactive)
6,C=CCN1C(=O)/C(=C/c2cccs2)C(=O)NC1=S,4.47 kMESF (inactive)
7,COc1ccc(OCC(=O)NNC(=S)NC(=O)C2CCCCC2)cc1,14.4 kMESF (inactive)
8,COc1ccc(/C=C2/C(=O)ON=C2c2ccccc2)cc1OC,14 kMESF (inactive)
9,Cc1cc(Br)c2c(c1)/C(=C/C(=O)c1cccs1)C(=O)N2,6.22 kMESF (inactive)
10,O=C(O)c1ccc(COc2ccccc2C=C2C(=O)c3ccccc3C2=O)cc1,4.11 kMESF (inactive)
11,O=C(Nc1nc2ccc(F)cc2s1)c1ccccn1,8.11 kMESF (inactive)
12,CC(C)C[C@]1(c2ccccc2)ON(c2ccccc2C(F)(F)F)C1=O,2.53 kMESF (inactive)
13,COc1ccc(C(=O)NC(=S)NNC(=O)CCc2ccccc2)cc1,5.9 kMESF (inactive)
14,COc1cc(N=c2ssnc2Cl)c(OC)cc1Cl,13.4 kMESF (inactive) and 13.8 kMESF (inactive)
15,Cc1cccc(N=C2NC(=O)/C(=C/C=C/c3ccco3)S2)c1C,13.7 kMESF (inactive)
16,C=CCOc1cccc(C(=O)/C=C2/C(=O)Nc3ccccc32)c1,8.61 kMESF (inactive)
17,COC(=O)CCS(=O)(=O)c1nc(-c2ccccc2)cc(C(F)(F)F)n1,20.1 kMESF (inactive)
18,Cc1ccc(-c2nn(C(C)(C)C)c3ncnc(N)c23)cc1,8.82 kMESF (inactive)
19,O=C(NNC(=S)NC(=O)C12CC3CC(CC(C3)C1)C2)c1ccncc1,15.7 kMESF (inactive)
20,O=C1NC(=O)N(CCc2ccc(F)cc2)C(=O)/C1=C/c1cccs1,9.69 kMESF (inactive)
21,N=C1/C(=C\c2coc3ccccc3c2=O)C(=O)N=C2SC(c3ccncc3)=NN12,-3.74 kMESF (inactive)
22,CC(C)(C)C1C/C(=C/c2ccccn2)C(=O)/C(=C/c2ccccn2)C1 (stereo unspecified),4.25 kMESF (inactive)

row,SMILES,LAP4-GFP fluorescence (kMESF)
1,COc1ccc(C2=CC3=C(Br)C(=O)C(C)(O)C(=O)C3=CO2)cc1 (stereo unspecified),0.34 kMESF (inactive)
2,COc1cc(NC(=O)c2ccc(C)cc2)ccc1NC(=O)c1cc2ccccc2o1,3.61 kMESF (inactive)
3,O=C(OCn1ncc(Br)c(Br)c1=O)c1ccccc1Cl,10.5 kMESF (inactive)
4,COc1ccc(N/N=C(\C#N)C(N)=O)cc1,13.2 kMESF (inactive)
5,CC(OC(=O)c1ccco1)C(=O)Nc1nc(-c2ccccc2)cs1 (stereo unspecified),3.33 kMESF (inactive)
6,Oc1c(CN2CCN(c3ccc(F)cc3)CC2)cc(Cl)c2cccnc12,13.1 kMESF (inactive)
7,CC[C@H](C)/C=C(C)/C=C/C1=CC2=C(Cl)C(=O)[C@@](C)(OC(C)=O)C(=O)C2=CO1,0.86 kMESF (inactive)
8,CCn1c(/C=C/c2ccc([N+](=O)[O-])o2)nc2ccccc2c1=O,-69.5 kMESF (inactive)
9,O=c1c2sc(-c3ccccc3)cc2nc2n1CCC2,5.96 kMESF (inactive)
10,COc1ccc([C@@]2(C(C)C)ON(c3ccccc3C(F)(F)F)C2=O)cc1,4.38 kMESF (inactive)
11,CCOC(=O)c1c(C)oc2c1c(C(c1ccncc1)N1CCOCC1)c(O)c1ccccc12 (stereo unspecified),6.29 kMESF (inactive)
12,CCOc1ccc(C(C)=O)cc1N1C(=O)C2C3C=CC(O3)C2C1=O (stereo unspecified),14 kMESF (inactive)
13,CC(Oc1ccc2ccccc2c1)C(=O)NNC(=S)NC(=O)c1ccco1 (stereo unspecified),13.9 kMESF (inactive)
14,O=C(Oc1c(Cl)cc(Cl)c2cccnc12)c1cccs1,13.8 kMESF (inactive)
15,C=C1C(O)[C@@H]2O[C@]3(CC[C@H](/C=C/C(C)[C@@H]4CC(C)=CC5(O[C@H](C[C@@](C)(O)C(=O)O)CCC5O)O4)O3)CC[C@H]2O[C@@H]1C(O)CC(C)[C@H]1OC2(CCCCO2)CCC1C (stereo partly specified),11.7 kMESF (inactive)
16,COc1ccc(-c2cc(C(F)(F)F)nc(S(C)(=O)=O)n2)cc1,10.6 kMESF (inactive)
17,O=C(Nc1ccc(O)cc1)C1CCCN1S(=O)(=O)c1ccc(F)cc1 (stereo unspecified),3.13 kMESF (inactive)
18,CCOc1ccc(N2C(=O)C(Cl)=C(Nc3ccccc3O)C2=O)cc1,5.81 kMESF (inactive)
19,COc1ccc([C@]2(C(C)C)ON(c3ccccc3C(F)(F)F)C2=O)cc1,4.65 kMESF (inactive)
20,CCC(=O)Oc1oc(-c2ccccc2)nc1C=Nc1ccc(C)cc1,4.73 kMESF (inactive)
21,Cc1cc(C)c2c(c1)/C(=C/C(=O)c1ccc(Br)s1)C(=O)N2,6.56 kMESF (inactive)
22,CC(=O)n1cc(C(C[N+](=O)[O-])SCCN)c2ccccc21 (stereo unspecified),4.35 kMESF (inactive)

row,SMILES,LAP4-GFP fluorescence (kMESF)
1,Cc1cc(NC(c2ccc(Cl)cc2)c2ccc3cccnc3c2O)no1 (stereo unspecified),11.2 kMESF (inactive)
2,Oc1c(CN2CCCCC2)cc(Br)c2cccnc12,16 kMESF (inactive)
3,CCCc1ccc(OCC(=O)NNC(=S)NC(=O)c2ccco2)cc1,11.2 kMESF (inactive)
4,Cc1ccccc1N1C(=O)C(Cl)=C(N2CCN(c3ccccc3)CC2)C1=O,3.41 kMESF (inactive)
5,Cc1[nH]c2ccccc2c1C(=O)COC(=O)c1ccc([N+](=O)[O-])s1,6.02 kMESF (inactive)
6,O=C1C=C(c2ccc(Cl)cc2)C(=O)N1Nc1ccccc1,5.81 kMESF (inactive)
7,COc1cc(/C=C2\CC/C(=C\c3cc(OC)c(O)c(OC)c3)C2=O)cc(OC)c1O,2.53 kMESF (inactive)
8,CCC(C)/C(C)=N/NC(=O)c1ccc(COc2ccc(Cl)c(C)c2)cc1 (stereo unspecified),4.7 kMESF (inactive)
9,C=CCN1C(=O)/C(=C/c2ccc(-c3ccc(F)cc3)o2)SC1=S,15 kMESF (inactive)
10,Cc1ccc(C(=O)O/N=C(\N)Cc2cccs2)c(Cl)c1,13.1 kMESF (inactive)
11,Cc1ccc(N2C(=O)CC(Sc3ncn[nH]3)C2=O)cc1C (stereo unspecified),7.56 kMESF (inactive)
12,CCc1cccc2sc(N3CCN(C(=O)c4ccc([N+](=O)[O-])o4)CC3)nc12,-0.3 kMESF (inactive)
13,O=C1c2cccc3c([N+](=O)[O-])ccc(c23)C(=O)N1c1ccccn1,7.78 kMESF (inactive)
14,Cc1ccc(/C=c2\sc3nc(-c4cccs4)nn3c2=O)o1,7.32 kMESF (inactive)
15,CCCc1cc(=O)oc2cc(C)cc(OCC(=O)NC3CC3)c12,3.74 kMESF (inactive)
16,CCc1nc2ccccc2c(=O)n1NC(=O)c1c(O)c2ccccc2n(CC)c1=O,3.31 kMESF (inactive)
17,COc1cccc(/C=C2\C(=O)N(c3cccc(C)c3)C(=O)c3ccccc32)c1,9.02 kMESF (inactive)
18,C=CCOc1ccc(C(=O)/C=C2/C(=O)Nc3ccccc32)cc1,7.99 kMESF (inactive)
19,COc1cc(/C=C/c2ccc3c(Br)cc(Br)c(O)c3n2)ccc1O,11.7 kMESF (inactive)
20,COc1cccc2c(=O)c(C(=O)NCc3cccs3)c[nH]c12,2.13 kMESF (inactive)
